In brackets after ≈: the same amount, converted by molar mass. Activity calls are given as the source filed them. The rule behind the calls is not given here.
Columns and labels:
Cell membrane [1] = assay: Disruption of cell membrane integrity in Staphylococcus aureus ATCC 25923 assessed as increase in blue fluorescence at 1 ug/ml incubated for 1 hr by […] and propidium iodide double staining based confocal microscopic analysis; type: cell membranes; conditions: dose 1.0 µg/ml
Staphylococcus aureus [2] = assay: Antibacterial activity against methicillin resistant Staphylococcus aureus clinical isolate 20-1 assessed as inhibition of bacterial growth incubated for 7 days by alamar blue assay; type: functional; conditions: clinical isolate 20-1, 168 h, time 7 day
[3] = tested on: Staphylococcus epidermidis; assay: Antibacterial activity against methicillin resistant Staphylococcus epidermidis clinical isolate 20-2 assessed as inhibition of bacterial growth incubated for 7 days by alamar blue assay; type: functional; conditions: clinical isolate 20-2, 168 h, time 7 day
Staphylococcus aureus [4] = assay: (§1) Antibacterial activity against methicillin resistant Staphylococcus aureus ATCC 33592 infected in cyclophosphamide-induced immunosuppressed Kunming mouse assessed as reduction of bacterial load in liver at 10 to 50 mg/kg,po administration measured after 24 hrs by hematoxylin and eosin staining based microscopy; type: functional, organism-based; conditions: dose 10-50 mg/kg
[5] = Volume of distribution in BALB/c mouse at 1 mg/kg,iv administration measured upto 24 hrs by LC-MS/MS analysis; type: ADME, organism-based; conditions: in vivo
Staphylococcus aureus [6] = assay: Antibacterial activity against methicillin resistant Staphylococcus aureus ATCC 33592 infected in cyclophosphamide-induced immunosuppressed Kunming mouse assessed as increase in white blood cell at 25 to 50 mg/kg,po administration measured after 7 days by Giemsa staining based analysis; type: functional, organism-based; conditions: dose 25-50 mg/kg, time 7.0 day
[7] = Metabolic stability in human liver microsomes assessed as compound remaining at 10 uM incubated for 60 mins in absence of NADPH by LC-MS/MS analysis; type: ADME, Microsome; conditions: read-out: Stability
Staphylococcus aureus [8] = assay: as §1, with “reduction” for “reduction of bacterial load”, “pigment deposition in spleen” for “liver”, “at” for “at 10 to”; type: functional, organism-based
Staphylococcus aureus [9] = assay: Antibacterial activity against Linezolid resistant Staphylococcus aureus assessed as inhibition of bacterial growth incubated for 7 days by alamar blue assay; type: functional; conditions: 168 h, time 7 day
[10] = MRT (0 to t) in BALB/c mouse at 1 mg/kg,iv administration measured upto 24 hrs by LC-MS/MS analysis; type: ADME, organism-based; conditions: in vivo
Staphylococcus aureus [11] = assay: Antibacterial activity against methicillin resistant Staphylococcus aureus ATCC 33592 infected in cyclophosphamide-induced immunosuppressed Kunming mouse assessed as increase in body weight at 10 to 50 mg/kg,po administration measured for 7 days; type: functional, organism-based; conditions: dose 10-50 mg/kg, time 7.0 day
Staphylococcus aureus [12] = assay: as §1, with “reduction” for “reduction of bacterial load”, “histopathological change in heart” for “liver”; type: functional, organism-based; conditions: dose 10-50 mg/kg
Cell membrane [13] = assay: Disruption of cell membrane in methicillin resistant Staphylococcus aureus ATCC 33592 assessed as cell surface perforation at 0.5 ug/ml incubated for 6 hrs by Scanning electron microscopic analysis; type: cell membranes; conditions: dose 0.5 µg/ml
[14] = Plasma protein binding in BALB/c mouse at 1 mg/kg,iv administration measured upto 24 hrs by LC-MS/MS analysis; type: ADME, organism-based; conditions: read-out: PPB (converted)
Staphylococcus aureus [15] = assay: as §1, with “in” for “of”, “lung” for “liver”; type: functional, organism-based; conditions: dose 10-50 mg/kg
Cell membrane [16] = assay: Disruption of cell membrane in methicillin resistant Staphylococcus aureus ATCC 33592 assessed as cell shrinkage at 0.5 ug/ml incubated for 6 hrs by Scanning electron microscopic analysis; type: cell membranes; conditions: dose 0.5 µg/ml
Staphylococcus aureus [17] = assay: Antibacterial activity against vancomycin resistant Staphylococcus aureus assessed as inhibition of bacterial growth incubated for 7 days by alamar blue assay; type: functional; conditions: 168 h, time 7 day
Cell membrane [18] = assay: Disruption of cell membrane in methicillin resistant Staphylococcus aureus ATCC 33592 assessed as damage in bacterial cell envelope at 0.5 ug/ml incubated for 30 mins by Scanning electron microscopic analysis; type: cell membranes; conditions: dose 0.5 µg/ml
[19] = Metabolic stability in ICR mouse liver microsomes assessed as compound remaining at 10 uM incubated for 60 mins in absence of NADPH by LC-MS/MS analysis; type: ADME, Microsome; conditions: read-out: Stability
Bacillus subtilis = assay: Antibacterial activity against Bacillus subtilis ATCC6633 assessed as inhibition of bacterial growth incubated for 18 hrs by microdilution broth assay; type: functional
Cell membrane [20] = assay: Disruption of cell membrane integrity in methicillin resistant Staphylococcus aureus ATCC 33592 assessed as increase in blue fluorescence at 1 ug/ml incubated for 1 hr by […] and propidium iodide double staining based confocal microscopic analysis; type: cell membranes; conditions: dose 1.0 µg/ml
[21] = Drug concentration in BALB/c mouse plasma at 10 mg/kg,po administration measured within 15 mins by LC-MS/MS analysis; type: ADME, organism-based
Cell membrane [22] = assay: Disruption of cell membrane in methicillin resistant Staphylococcus aureus ATCC 33592 assessed as cell lysis at 0.5 ug/ml incubated for 6 hrs by Scanning electron microscopic analysis; type: cell membranes; conditions: dose 0.5 µg/ml
[23] = AUC (0 to infinity) in BALB/c mouse at 1 mg/kg,iv administration measured upto 24 hrs by LC-MS/MS analysis; type: ADME, organism-based; conditions: BALB/c, in vivo
Staphylococcus aureus [24] = assay: as §1, with “reduction” for “reduction of bacterial load”, “histopathological change in lung” for “liver”, “25” for “10”; type: functional, organism-based; conditions: dose 25-50 mg/kg
[25] = Clearance in BALB/c mouse at 1 mg/kg,iv administration measured upto 24 hrs by LC-MS/MS analysis; type: ADME, organism-based; conditions: in vivo
Staphylococcus aureus [26] = assay: Antibacterial activity against methicillin resistant Staphylococcus aureus ATCC 33592 infected in cyclophosphamide-induced immunosuppressed Kunming mouse by measuring survival rate of mouse at 25 mg/kg,po administration measured for 7 days; type: functional; conditions: ATCC 33592, 168 h, time 7 day
Staphylococcus aureus [27] = assay: Antibacterial activity against Linezolid resistant Staphylococcus aureus clinical isolate 20-1 assessed as inhibition of bacterial growth incubated for 7 days by alamar blue assay; type: functional; conditions: clinical isolate 20-1, 168 h, time 7 day
Staphylococcus aureus [28] = assay: Antibacterial activity against methicillin resistant Staphylococcus aureus ATCC 33592 infected in cyclophosphamide-induced immunosuppressed Kunming mouse assessed as decrease in TNF-alpha level at po administration measured after 24 hrs by ELISA; type: functional, organism-based
Staphylococcus aureus [29] = assay: as §1, with “reduction” for “reduction of bacterial load”, “inflammatory cell infiltration in kidney” for “liver”, “at” for “at 10 to”; type: functional, organism-based
Staphylococcus aureus [30] = assay: as §1, with “reduction” for “reduction of bacterial load”, “congestion in spleen” for “liver”, “10” for “10 to 50”; type: functional, organism-based
[31] = AUC (0 to t) in BALB/c mouse at 1 mg/kg,iv administration measured upto 24 hrs by LC-MS/MS analysis; type: ADME, organism-based; conditions: in vivo
Cell membrane [32] = assay: Disruption of cell membrane integrity in Staphylococcus aureus ATCC 25923 assessed as increase in red fluorescence at 0.5 ug/ml incubated for 1 hr by […] and propidium iodide double staining based confocal microscopic analysis; type: cell membranes; conditions: dose 0.5 µg/ml
Staphylococcus aureus [33] = assay: Bacteriostatic activity against methicillin resistant Staphylococcus aureus ATCC 33592 at 4 times MIC incubated for 2 to 24 hrs by time-kill assay; type: functional, organism-based; conditions: time 2-24 hrs
Staphylococcus aureus [34] = assay: Antibacterial activity against daptomycin/methicillin resistant Staphylococcus aureus assessed as inhibition of bacterial growth incubated for 7 days by alamar blue assay; type: functional; conditions: 168 h, time 7 day

CC(=O)NC[C@@H]1OC(=O)N2Cc3cc(-c4ccc(C#N)cc4)c(F)cc3O[C@@H]12
Activity (Cell membrane [1]): Active | MIC (Staphylococcus aureus [2]): 0.5 µg/mL (≈ 1.31 µM) | MIC [3]: 0.06 µg/mL (≈ 0.157 µM) | Activity (Staphylococcus aureus [4]): Active | Vd [5]: 1.94 L/kg | Activity (Staphylococcus aureus [6]): Active | remaining at 1 h, 10 µM [7]: 120% | Activity (Staphylococcus aureus [8]): Active | MIC (Staphylococcus aureus [9]): 2 µg/mL (≈ 5.24 µM) | MRT last at 24 h [10]: 6.6 h | Activity (Staphylococcus aureus [11]): Active | Activity (Staphylococcus aureus [12]): Active | Activity (Cell membrane [13]): Active | fraction unbound at 24 h [14]: 0.239 | Activity (Staphylococcus aureus [15]): Active | Activity (Cell membrane [16]): Active | MIC (Staphylococcus aureus [17]): 1 µg/mL (≈ 2.62 µM) | Activity (Cell membrane [18]): Active | remaining at 1 h, 10 µM [19]: 101% | MIC (Bacillus subtilis): 0.032 µg/mL (≈ 0.0839 µM) | Activity (Cell membrane [20]): Active | concentration at 0.25 h [21]: 1000 ng/mL | Activity (Cell membrane [22]): Active | AUC(0-inf) [23]: 5130 ng·h/mL | Activity (Staphylococcus aureus [24]): Active | clearance [25]: 2.92 mL/min/kg | survival at 25 mg/kg (Staphylococcus aureus [26]): 100% | MIC (Staphylococcus aureus [27]): 8 µg/mL (≈ 21 µM) | Activity (Staphylococcus aureus [28]): Dose-Dependent Effect | Activity (Staphylococcus aureus [29]): Active | Activity (Staphylococcus aureus [30]): Active | AUC(0-t) at 24 h [31]: 5120 ng·h/mL | Activity (Cell membrane [32]): Active | Activity (Staphylococcus aureus [33]): Active | MIC (Staphylococcus aureus [34]): 1 µg/mL (≈ 2.62 µM)

— ChEMBL document CHEMBL5608235, “Tricyclic Benzo[1,3]oxazinyloxazolidinones as Potent Antibacterial Agents against Drug-Resistant Pathogens” (J Med Chem, 2024)
